# Biological target: FGFR2 (Homo sapiens, UniProt P21802)
# Experiment: FGFR wild type enzyme assay (HTRF KinEASE-TK), FGFR2
# Settings: Enz FGFR2 (nM), FGFR2 wild type enzyme assay
# Chain of FGFR2 (P21802 399-821 limits assumed): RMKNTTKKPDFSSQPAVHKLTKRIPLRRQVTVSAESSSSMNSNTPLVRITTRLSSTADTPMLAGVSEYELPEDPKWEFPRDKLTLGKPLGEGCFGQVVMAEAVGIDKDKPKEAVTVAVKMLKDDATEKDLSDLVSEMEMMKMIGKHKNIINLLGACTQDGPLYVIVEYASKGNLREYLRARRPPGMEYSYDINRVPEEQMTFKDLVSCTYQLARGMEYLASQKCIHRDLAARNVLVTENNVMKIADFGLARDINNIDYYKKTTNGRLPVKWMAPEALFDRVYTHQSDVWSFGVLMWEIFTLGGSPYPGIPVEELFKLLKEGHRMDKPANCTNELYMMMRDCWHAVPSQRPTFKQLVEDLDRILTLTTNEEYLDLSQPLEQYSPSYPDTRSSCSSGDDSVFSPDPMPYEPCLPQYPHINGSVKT
row,IC50 [nM],SMILES
1,0.4,"CC(=O)N1CCC[C@H](n2cc(-c3cc(Sc4ccccc4C#N)c4c(C#N)cnn4c3)cn2)C1 [Example 516, (S)-6-(1-(1-acetylpiperidin-3-yl)-1H-pyrazol-4-yl)-4-((2-cyanophenyl)thio)pyrazolo [1,5-a]pyridine-3-carbonitrile]"
2,2,"N#Cc1cnn2cc(-c3cnn(CCCO)c3)cc(Sc3ncccc3F)c12 [Example 521, 4-((3-fluoropyridin-2-yl)thio)-6-(1-(3-hydroxypropyl)-1H-pyrazol-4-yl)pyrazolo[1,5-a]pyridine-3-carbonitrile]"
3,3,"N#Cc1cnn2cc(-c3cnn(C(CO)CO)c3)cc(Sc3ncccc3F)c12 [Example 524, 6-(1-(1,3-dihydroxypropan-2-yl)-1H-pyrazol-4-yl)-4-((3-fluoropyridin-2-yl)thio)pyrazolo[1,5-a]pyridine-3-carbonitrile]"
4,1,"N#Cc1ccccc1Sc1cc(-c2ccc(N3CCNCC3)nc2)cn2ncc(C#N)c12 [Example 526, 4-((2-cyanophenyl)thio)-6-(6-(piperazin-1-yl)pyridin-3-yl)pyrazolo[1,5-a]pyridine-3-carbonitrile]"
5,2.5,"Cc1c(-c2cc(Sc3ccc(F)cc3C#N)c3c(C#N)cnn3c2)cnn1[C@@H]1CCC(C)(C)NC1 [Example 528, 4-(2-cyano-4-fluoro-phenyl)sulfanyl-6-[1-[(3R)-6,6-dimethyl-3-piperidyl]-5-methyl-pyrazol-4-yl]pyrazolo[1,5-a]pyridine-3-carbonitrile]"
6,69,"N#Cc1cnn2cc(-c3cn([C@H]4CCCNC4)nc3CO)cc(Sc3ncccc3F)c12 [Example 530, 4-[(3-fluoro-2-pyridyl)sulfanyl]-6-[3-(hydroxymethyl)-1-[(3S)-3-piperidyl]pyrazol-4-yl]pyrazolo[1,5-a]pyridine-3-carbonitrile]"
7,0.5,"C[C@H](O)C(=O)N1CCC[C@H](n2cc(-c3cc(Sc4ccccc4C#N)c4c(C#N)cnn4c3)cn2)C1 [Example 532, 4-((2-cyanophenyl)thio)-6-(1-((S)-1-((S)-2-hydroxypropanoyl)piperidin-3-yl)-1H-pyrazol-4-yl)pyrazolo[1,5-a]pyridine-3-carbonitrile]"
8,1,"C[C@H](O)C(=O)N1CCC[C@@H](n2cc(-c3cc(Sc4ccccc4C#N)c4c(C#N)cnn4c3)cn2)C1 [Example 533, 4-((2-cyanophenyl)thio)-6-(1-((R)-1-((S)-2-hydroxypropanoyl)piperidin-3-yl)-1H-pyrazol-4-yl)pyrazolo[1,5-a]pyridine-3-carbonitrile]"
9,0.4,"N#Cc1ccccc1Sc1cc(-c2cnn([C@@H]3CCCNC3)c2)cn2ncc(C#N)c12 [Example 535, (R)-4-((2-cyanophenyl)thio)-6-(1-(piperidin-3-yl)-1H-pyrazol-4-yl)pyrazolo[1,5-a]pyridine-3-carbonitrile]"
10,1,"CC(=O)N1CCC[C@@H](n2cc(-c3cc(Sc4ccccc4C#N)c4c(C#N)cnn4c3)cn2)C1 [Example 537, (R)-6-(1-(1-acetylpiperidin-3-yl)-1H-pyrazol-4-yl)-4-((2-cyanophenyl)thio)pyrazolo [1,5-a]pyridine-3-carbonitrile]"
11,9,Cc1ccc(-c2cc(Sc3ccccc3C#N)c3c(C#N)cnn3c2)cn1 [Example 539]
12,1,"CN(C)C(=O)Cn1cc(-c2cc(Sc3ccccc3C#N)c3c(C#N)cnn3c2)cn1 [Example 541, 2-(4-(3-cyano-4-((2-cyanophenyl)thio)pyrazolo [1,5-a]pyridin-6-yl)-1H-pyrazol-1-yl)-N,N-dimethylacetamide]"
13,0.4,"N#Cc1ccccc1Sc1cc(-c2cnn(C3CCOCC3)c2)cn2ncc(C#N)c12 [Example 542, 4-((2-cyanophenyl)thio)-6-(1-(tetrahydro-2H-pyran-4-yl)-1H-pyrazol-4-yl)pyrazolo[1,5-a]pyridine-3-carbonitrile]"
14,2,"Cc1c(-c2cc(Sc3ccc(F)cc3C#N)c3c(C#N)cnn3c2)cnn1[C@H]1CC[C@H](OP(=O)(O)O)CC1 [Example 543, [4-[4-[3-cyano-4-(2-cyano-4-fluoro-phenyl)sulfanyl-pyrazolo[1,5-a]pyridin-6-yl]-5-methylpyrazol-1-yl]cyclohexyl] dihydrogen phosphate]"
15,3,"Cc1c(-c2cc(Sc3ccc(F)cc3C#N)c3c(C#N)cnn3c2)cnn1C1CCOC1 (stereo not shown) [Example 547, 4-((2-cyano-4-fluorophenyl)thio)-6-(5-methyl-1-(tetrahydrofuran-3-yl)-1H-pyrazol-4-yl)pyrazolo[1,5-a]pyridine-3-carbonitrile]"
16,0.4,"N#Cc1ccccc1Sc1cc(-c2ccc(N3CCC(O)CC3)nc2)cn2ncc(C#N)c12 [Example 548, 4-((2-cyanophenyl)thio)-6-(6-(4-hydroxypiperidin-1-yl)pyridin-3-yl)pyrazolo[1,5-a]pyridine-3-carbonitrile]"
17,1,"N#Cc1ccccc1Sc1cc(-c2ccc(N3CCCC3)nc2)cn2ncc(C#N)c12 [Example 549, 4-((2-cyanophenyl)thio)-6-(6-(pyrrolidin-1-yl)pyridin-3-yl)pyrazolo[1,5-a]pyridine-3-carbonitrile]"

# The remaining lines, values behind:
row,SMILES,IC50 [nM]
1,"CN1CCC[C@H](n2cc(-c3cc(Sc4ccccc4C#N)c4c(C#N)cnn4c3)cn2)C1 [Example 515, (S)-4-((2-cyanophenyl)thio)-6-(1-(1-methylpiepridin-3-yl)-1H-pyrazol-4-yl)pyrazolo[1,5-a]pyridine-3-carbonitrile]",1
2,"N#Cc1ccccc1Sc1cc(-c2cnn([C@H]3CCCN(C(=O)CO)C3)c2)cn2ncc(C#N)c12 [Example 517, (S)-4-((2-cyanophenyl)thio)-6-(1-(1-(2-hydroxyacetyl)piperidin-3-yl)-1H-pyrazol-4-yl)pyrazolo[1,5-a]pyridine-3-carbonitrile]",0.4
3,"N#Cc1ccccc1Sc1cc(-c2cnn([C@H]3CCCC[C@@H]3O)c2)cn2ncc(C#N)c12 [Example 518, 4-((2-cyanophenyl)thio)-6-(1-((1S,2S)-2-hydroxycyclohexyl)-1H-pyrazol-4-yl)pyrazolo[1,5-a]pyridine-3-carbonitrile]",0.4
4,"N#Cc1ccccc1Sc1cc(-c2cnn([C@@H]3CCCC[C@H]3O)c2)cn2ncc(C#N)c12 [Example 519, 4-((2-cyanophenyl)thio)-6-(1-((1R,2R)-2-hydroxycyclohexyl)-1H-pyrazol-4-yl)pyrazolo[1,5-a]pyridine-3-carbonitirle]",1
5,"CC(=O)N1CCCC(n2cc(-c3cc(Sc4ccccc4C#N)c4c(C#N)cnn4c3)cn2)CC1 (stereo not shown) [Example 520, 6-(1-(1-acetylazepan-4-yl)-1H-pyrazol-4-yl)-4-((2-cyanophenyl)thio)pyrazolo [1,5-a]pyridine-3-carbonitrile]",0.4
6,"N#Cc1cnn2cc(-c3cnn(C[C@@H](O)CO)c3)cc(Sc3ncccc3F)c12 [Example 522, (R)-6-(1-(2,3-dihydroxypropyl)-1H-pyrazol-4-yl)-4-((3-fluoropyridin-2-yl)thio)pyrazolo[1,5-a]pyridine-3-carbonitrile]",2
7,"N#Cc1cnn2cc(-c3cnn(C[C@H](O)CO)c3)cc(Sc3ncccc3F)c12 [Example 523, (S)-6-(1-(2,3-dihydroxypropyl)-1H-pyrazol-4-yl)-4-((3-fluoropyridin-2-yl)thio)pyrazolo[1,5-a]pyridine-3-carbonitrile]",2
8,"N#Cc1ccccc1Sc1cc(-c2cnn(C(CO)CO)c2)cn2ncc(C#N)c12 [Example 525, 4-((2-cyanophenyl)thio)-6-(1-(1,3-dihydroxypropan-2-yl)-1H-pyrazol-4-yl)pyrazolo[1,5-a]pyridine-3-carbonitrile]",1
9,"CN1CCN(c2ccc(-c3cc(Sc4ccccc4C#N)c4c(C#N)cnn4c3)cn2)CC1 [Example 527, 4-((2-cyanophenyl)thio)-6-(6-(4-methylpiperazin-1-yl)pyridin-3-yl)pyrazolo[1,5-a]pyridine-3-carbonitrile]",0.4
10,"Cc1c(-c2cc(Sc3ccc(F)cc3C#N)c3c(C#N)cnn3c2)cnn1C[C@H](O)CO [Example 531, (S)-4-((2-cyano-4-fluorophenyl)thio)-6-(1-(2,3-dihydroxypropyl)-5-methyl-1H-pyrazol-4-yl)pyrazolo[1,5-a]pyridine-3-carbonitrile]",11
11,"N#Cc1ccccc1Sc1cc(-c2cnn([C@@H]3CCCN(CCO)C3)c2)cn2ncc(C#N)c12 [Example 534, (R)-4-((2-cyanophenyl)thio)-6-(1-(1-(2-hydroxyethyl)piperidin-3-yl)-1H-pyrazol-4-yl)pyrazolo[1,5-a]pyridine-3-carbonitrile]",0.5
12,"N#Cc1ccccc1Sc1cc(-c2cnn([C@@H]3CCCN(C(=O)CO)C3)c2)cn2ncc(C#N)c12 [Example 536, (R)-4-((2-cyanophenyl)thio)-6-(1-(1-(2-hydroxyacetyl)piperidin-3-yl)-1H-pyrazol-4-yl)pyrazolo[1,5-a]pyridine-3-carbonitrile]",1
13,"COCC(=O)N1CCC(n2cc(-c3cc(Sc4ccccc4C#N)c4c(C#N)cnn4c3)cn2)CC1 [Example 538, 4-((2-cyanophenyl)thio)-6-(1-(1-(2-methoxyacetyl)piperidin-4-yl)-1H-pyrazol-4-yl)pyrazolo[1,5-a]pyridine-3-carbonitrile]",0.3
14,CNC(=O)Cn1cc(-c2cc(Sc3ccccc3C#N)c3c(C#N)cnn3c2)cn1 [Example 540],1
15,"N#Cc1ccccc1Sc1cc(-c2cnn(C[C@H](O)CO)c2)cn2ncc(C#N)c12 [Example 544, (S)-4-((2-cyanophenyl)thio)-6-(1-(2,3-dihydroxypropyl)-1H-pyrazol-4-yl)pyrazolo[1,5-a]pyridine-3-carbonitrile]",1
16,"Cn1ncc(-c2cc(Sc3ncccc3F)c3c(C#N)cnn3c2)c1N [Example 545, 6-(5-amino-1-methyl-pyrazol-4-yl)-4-[(3-fluoro-2-pyridyl)sulfanyl]pyrazolo[1,5-a]pyridine-3-carbonitrile]",3
17,"N#Cc1cc(F)ccc1Sc1cc(-c2cnn(-c3cn[nH]c3)c2)cn2ncc(C#N)c12 [Example 546, 6-(1′H-[1,4′-bipyrazol]-4-yl)-4-((2-cyano-4-fluorophenyl)thio)pyrazolo [1,5-a]pyridine-3-carbonitrile]",6

# Reference: patent US20240270741A1 (Cogent Biosciences, Inc., priority 2023, published 2024)
